Tests used:
[1] = system: bananas; assay: Color change of bananas after ethylene mediated ripening treatment (colorimeter); assay type: in vivo; conditions: banana surface color after ripening treatment (48 hours)
Method: (§1) The color change of the produce was measured using a Minolta colorimeter (Minolta Co. Ltd, Japan). The L values reported were means of 12 readings; three readings from each side of each of the bananas, and two readings per avocado. For bananas, ‘a’ was an indicator of green, and higher ‘a’ value meant less green; ‘b’ was an indicator of yellow, and higher ‘b’ value meant more yellow. For avocados, the degree of browning was expressed by the percent decrease in the L value calculated by subtracting the L value of treated and control samples measured at evaluation times from the time zero L value obtained from untreated samples measured immediately after cutting, divided by the time zero value and multiplied by 100.

[2] = system: avocados; assay: Color change of avocados after ethylene mediated ripening treatment (colorimeter); assay type: in vivo, avocado
Method: as §1

[3] = system: bananas; assay: Texture (tensile property, firmness) of bananas after ripening treatment; assay type: in vivo, banana
Method: (§2) Each measurement was repeated at least three times. […] Five replicates were measured for each measurement.
(§3) Tensile Property. […] At least five replicates were measured for each treatment.

[4] = system: avocados; conditions: after 48 hours of treatment
Method: as §2, §3

[5] = system: climacteric produce; assay: Controlled ripening of climacteric produce; assay type: in vivo
From the text: Avacados and grocery bananas (pretreated at warehouse or retail facility) were acquired directly from local supermarket, and ‘non-gassed’ bananas were directly purchased from local produce distribution center (Coastal Sunbelt, Jessup, Md.).

[6] = avocado surface color after ripening treatment (48 hours)

SMILES: C=C [ethylene]
- L [1]: 66.74 ± 0.77
- c [1]: 45.80 ± 4.64
- h [1]: 92.08 ± 0.83
- a ([1]; higher a = less green): −1.66 ± 0.57
- b ([1]; higher b = more yellow): 45.77 ± 4.60
- skin color of avocado ([2]; after treatment, in words): darkened slightly
- L [2, 6]: 30.17 ± 0.23
- a [2, 6]: −1.31 ± 3.01
- b [2, 6]: 13.54 ± 1.66
- c [2, 6]: 13.60 ± 3.44
- h [2, 6]: 95.53 ± 0.29
- Young's modulus (initial slope): change of elasticity of bananas [3]: less elastic and more viscous
- avocado flesh texture [4]: softened significantly
- ripening state of samples ([5]; after 48 hours of treatment): fully ripened
- total ripening time required ([5]; versus no ethylene treatment): reduced by a half
